Here are results for one substance from patent publication US20170315126A1, “METHOD FOR SCREENING COMPOUND SPECIFICALLY SUPPRESSING FORMATION OF CAVEOLAE OF CANCER CELLS, SCREENING KIT, VECTOR AND TRANSFORMANT TO BE USED IN KIT, AND METHOD FOR SELECTING PATIENT FOR WHOM MOLECULARLY TARGETED DRUG IS INDICATED” (NATIONAL UNIVERSITY CORPORATION NAGOYA INSTITUTE OF …, priority 2014, published 2017).

Holding throughout (type): cell-based, human
The test system of data set [1] is caveolae of NCI-H1975 cells. Nature of the data set: Electron microscope analysis of caveolae by rapid freezing/freeze-fracture replica labeling. The conditions noted are these: 72 hours after transfection, n=18 regions. The procedure:
20 μm thick gold foil was placed in a culture dish, and NCI-H1975 cells, which are a pulmonary adenocarcinoma cell line, were cultured on top. Transfection of siControl or siROR1 was conducted. Rapid freezing was conducted using a high-pressure freezing machine (Leica Inc.) 72 hours after transfection. Freeze-fracture replicas were prepared using a BAF400 apparatus (Baltec Co.), and labeled by mouse anti-CAV2 antibody (BD Transduction Co.) after treatment by SDS. A second antibody reaction was then conducted using 10 nm gold colloid-conjugated goat anti-mouse IgG antibody (British Biocell International Co.), and the cells were examined by a JEM-1011 electron microscope. For caveolae distribution density measurement, randomly selected regions under the electron microscope (18 random cell membrane regions of 17-50 μm) were measured, and the cell membrane region of each electron micrograph was measured using ImageJ.

In data set [2] the test system is CAV1 and Cavin-1. Nature of the data set: IP-WB analysis of binding of endogenous CAV1 and Cavin-1 under ROR1 silencing. The conditions noted are these: NCI-H1975 cell extract 24 hours after transfection. On the procedure:
(§1) Western blotting analysis and IP-WB analysis were conducted by the standard methods using an Immobilon-P filter (manufactured by Millipore Corp.) and an enhanced chemiluminescence system (manufactured by GE Healthcare Inc.). pCMVpuro-Cavin-1-WT was coexpressed with various ROR1 expression constructs such as the wild type (WT), TKΔ473-564 (TKΔ1), TK564-655 (TKΔ2), TKΔ655-746 (TKΔ3), TKΔ473-655 (TKΔ1+×2), TKΔ564-746 (TKΔ2+Δ3), and TKΔ473-746 (TKA1+Δ2+A3) to identify the binding site of ROR1 and Cavin-1. pCMVpuro-CAV1-WT was coexpressed with ROR1 expression constructs such as the wild type (WT), TKΔ473-564 (TKΔ1), TKΔ564-655 (TKΔ2), TKΔ655-746 (TKΔ3), ST1Δ748-782 (ΔST1), PΔ784-851 (ΔP), and ST2Δ853 to 876 (ΔST2) to identify the binding site of ROR1 and CAV1. For these, the cells were recovered 24 hours after transfection by Fugene6 (Promega) using COS-7 cells, and IP-WB analysis was conducted.
In addition, IP-WB analysis was conducted after suspending the cells in lysis buffer containing octyl glucoside (10 mM Tris-HCl (pH 8.0), 0.15 M NaCl, 5 mM EDTA, 1% Triton X-100, 60 mM octyl glucoside) using NCI-H1975, NCI-H358, and SK-LU-1 cell lines, which are pulmonary adenocarcinoma cell lines, to confirm the binding of ROR1 and Cavin-1, ROR1 and CAV1, or Cavin-1 and IGF-IR.

Data set [3] has as its system CAV1. The data set is described as follows: Western blotting of CAV1 expression after siRNA transfection in pulmonary adenocarcinoma cell lines. The procedure: as §1
(§2) Transfection of the siRNA (20 nM each) was conducted in accordance with the manufacturer's instruction manual using lipofectamine RNAiMAX (manufactured by Invitrogen). […] Cells were also recovered 120 hours after transfection for analysis by colorimetry to measure cell proliferation.
(In general: A western blot detects proteins with antibodies after separation by electrophoresis.)

For data set [4], the system named is ROR1. Nature of the data set: Western blotting of changes over time in ROR1 expression after siROR1 transfection. The following applies: NCI-H1975; 24 hours after transfection. The procedure: as §1, §2
For data set [5], the system named is CAV1. The data set is described as follows: Western blotting of CAV1 after siROR1 treatment in cells expressing ROR1 wild type or mutants with silent mutation. The conditions noted are these: three days. The procedure:
In vitro mutagenesis was conducted using KOD-plus-DNA polymerase (Toyobo), and pCMVpuro-ROR1-WTm (siROR1) and pCMVpuro-ROR1-KDm (siROR1) including silent mutations for siROR1 were prepared. Following primer of not involving amino acid substitution was used for production.
Wild type ROR1 (ROR1-WT), wild type ROR1 with an added silent mutation for siROR1 (ROR1-WTm), or kinase activity-deficient ROR1 with a silent mutation for siROR1 added (ROR1-KDm) were transfected into NCI-H1975 cells. Selection by puromycin (1.5 μg/mL) was performed after 24 hours, and the single clones were collected, and stable clones that expressed the respective ROR1 (constitutive ROR1-expressing cell lines) were prepared. These stable clones were then treated by siControl or siROR1, and the cells were recovered after three days and Western blotting analysis was conducted.
In vitro mutagenesis was conducted using KOD-plus-DNA polymerase (Toyobo), and pCMVpuro-ROR1-WTm (siROR1) and pCMVpuro-ROR1-TKA2+TKA3m (siROR1) including silent mutations for siROR1 were prepared. Following primer of not involving amino acid substitution was used for production.
Wild type ROR1 (ROR1-WT), wild type ROR1 with an added silent mutation for siROR1 (ROR1-WTm), or cavin-1 binding region-deficient ROR1 with an added silent mutation for siROR1 (ROR1-TKA2+TKA3m) were transfected into PC-9 cells. Selection by puromycin (1.0 μg/mL) was performed after 24 hours, and the cells were recovered as bulk clones and reseeded in 6-well plates. The cells were then treated by siControl or siROR1, recovered after three days, and Western blotting analysis was conducted.
In vitro mutagenesis was conducted using KOD-plus-DNA polymerase (Toyobo), and pCMVpuro-ROR1-WTm (siROR1) and pCMVpuro-ROR1-AS/T2m (siROR1) including silent mutations for siROR1 were prepared. Following primer of not involving amino acid substitution was used for production.
Wild type ROR1 (ROR1-WT), wild type ROR1 with an added silent mutation for siROR1 (ROR1-WTm), or CAV1 binding region-deficient ROR1 with an added silent mutation for siROR1 (ROR1-ΔS/T2m) were transfected into PC-9 cells. Selection by puromycin (1.0 μg/mL) was performed after 24 hours, and the cells were recovered as bulk clones and reseeded in 6-well plates. The cells were then treated by siControl or siROR1, recovered after three days, and Western blotting analysis was conducted.

Consider “siROR1: RNA oligomer for RNAi against human ROR1, 5′-CAGCAAUGGAUGGAAUUUCAA-3′ (SEQ ID No: 13) (listed as RNA, further chemistry not given here)”, for which the “number of normal caveolae in random regions on the cell membrane” value in data set [1] is recorded as “decreases significantly”. Besides, in data set [2], the “binding of endogenous CAV1 and Cavin-1 (IP-WB)” value is “decreases the binding”. The “CAV1 expression (Western blot)” value is on record as “downregulation of CAV1 was found” in data set [3] (NCI-H441, NCI-H358 and PC-9, siRNA 20 nM, 72 hours after transfection); “downregulation of CAV1 was seen” in data set [3] (NCI-H1975, after 48 hours); “downregulation of CAV1 was not seen” in data set [5] (NCI-H1975 stable clones expressing ROR1-KDm (kinase activity-deficient, silent mutation)); “downregulation of CAV1” in data set [5] (NCI-H1975 stable clones expressing ROR1-WT); “downregulation of CAV1 was not seen” in data set [5] (NCI-H1975 stable clones expressing ROR1-WTm (silent mutation against siROR1)); “expression of CAV1 was lowered” in data set [5] (PC-9 transfected with ROR1-AS/T2m (CAV1 binding region deleted, silent mutation)). In addition, the “CAV1 expression (Western blot)” value in data set [5] (PC-9 transfected with ROR1-TKA2+TKA3m (cavin-1 binding region deleted, silent mutation)) is reported as “expression of CAV1 was lowered”. Also, in data set [4], the “ROR1 expression (Western blot)” value was “lowered the expression of ROR1”.
